tested on: A II receptor; assay: Angiotensin II ligand-receptor binding assay (rabbit aortae membrane preparation / bovine adrenal cortex preparation); conditions: "at least IC50 <50 μM"; not stated which of the two binding assays (rabbit aortae, 125I-Sar1Ile8-A II; bovine adrenal cortex, 3H-A II); read-out: IC50 (50% displacement of specifically bound radiolabelled angiotensin II ligand)
Source text: Angiotensin II (A II) is a powerful arterial vasoconstrictor, and it exerts its action by interacting with specific receptors present on cell membranes. The compounds described in the present invention act as competitive antagonists of A II at the receptors. In order to identify A II antagonists and determine their efficacy in vitro, the following two ligand-receptor binding assays were established.
Receptor binding assay using rabbit aortae membrane preparation
Three frozen rabbit aortae (obtained from Pel-Freeze Biologicals) were suspended in 5 mM Tris-0.25M Sucrose, pH 7.4 buffer (50 ml) homogenized, and then centifuged. The mixture was filtered through a cheesecloth and the supernatant was centrifuged for 30 minutes at 20,000 rpm at 4° C. The pellet thus obtained was resuspended in 30 ml of 50 mM Tris-5 mM MgCl2 buffer containing 0.2% Bovine Serum Albumin and 0.2 mg/ml Bacitration and the suspension was used for 100 assay tubes. Samples tested for screening were done in duplicate. To the membrane preparation (0.25 ml) there was added ^125 I-Sar^1 Ile^8 -angiotensin II [obtained from New England Nuclear] (10 ul; 20,000 cpm) with or without the test sample and the mixture was incubated at 37° C. for 90 minutes. The mixture was then diluted with ice-cold 50 mM Tris-0.9% NaCl, pH 7.4 (4 ml) and filtered through a glass fiber filter (GF/B Whatman 2.4" diameter). The filter was soaked in scintillation cocktail (10 ml) and counted for radioactivity using Packard 2660 Tricarb liquid scintillation counter. The inhibitory concentration (IC50) of potential A II antagonist which gives 50% displacement of the total specifically bound ^125 I-Sar^1 Ile^8 -angiotensin II was presented as a measure of the efficacy of such compounds as A II antagonists.
Receptor assay using Bovine adrenal cortex preparation
Bovine adrenal cortex was selected as the source of A II receptor. Weighed tissue (0.1 g is needed for 100 assay tubes) was suspended in Tris.HCl (50 mM), pH 7.7 buffer and homogenized. The homogenate was centrifuged at 20,000 rpm for 15 minutes. Supernatant was discarded and pellets resuspended in buffer [Na2 HPO4 (10 mM)-NaCl (120 mM)-disodium EDTA (5 mM) containing phenylmethane sulfonyl fluoride (PMSF)(0.1 mM)]. (For screening of compounds, generally duplicates of tubes are used). To the membrane preparation (0.5 ml) there was added 3H-angiotensin II ([…]) (10 ul) with or without the test sample and the mixture was incubated at 37° C. for 1 hour. The mixture was then diluted with Tris buffer (4 ml) and filtered through a glass fiber filter (GF/B Whatman 2.4" diameter). The filter was soaked in scintillation cocktail (10 ml) and counted for radioactivity using Packard 2660 Tricarb liquid scintillation counter. […]

IC50, < 50 µM:
CCCCc1nc2cscc2n1Cc1ccc(-c2ccccc2C(=O)O)cc1 [Example 1, 4'-[(2-butyl-1H-thieno[3,4-d]imidazol-1-yl)methyl][1,1'-biphenyl]-2-carboxylic acid]
CCCCc1nc2cc(C(=O)OC)sc2n1Cc1ccc(-c2ccccc2C(=O)O)cc1 [Example 3, 2-butyl-3-[(2'-carboxy{1,1'-biphenyl}-4-yl)methyl]-3H-thieno[2,3-d]imidazole-5-carboxylic acid methyl ester]
CCCCc1nc2sc(C(=O)OC)cc2n1Cc1ccc(-c2ccccc2-c2nnn[nH]2)cc1 [Example 6, 2-butyl-1-[(2'-{1H-tetrazol-5-yl}{1,1'-biphenyl}-4-yl)methyl]-1H-thieno[2,3-d]imidazole-5-carboxylic acid methyl ester]
CCCc1nc2c(c(C)nn2C)n1Cc1ccc(-c2ccccc2-c2nnn[nH]2)cc1 [Example 11, 1,4-Dihydro-1,3-dimethyl-5-propyl-4-[(2'-{1H-tetrazol-5-yl}{1,1'-biphenyl}-4-yl)methyl]imidazo[4,5-c]-pyrazole]
